Assay results taken from patent US9493795B2 (Algenol Biofuels Inc., priority 2013, dated 2016).
Read-outs that look alike come from different tables or passages of the source.

Key:
[1] = system: alcohol dehydrogenase from Arthronema africanum, wild type, SEQ ID NO: 8; test: Km determination of native Adh in cell extract (forward and back reaction), Arthronema africanum; type: biochemical; details: 0.15 mM NADPH, pH 7.5, 30° C., read-out: Km(MeCHO)
[2] = system: Adh from LPP; test: Km determination in the screening, Adh from LPP; type: biochemical; details: identified in the screening
Description: (§1) Km values of ADH enzymes were determined herein by varying concentrations of one substrate only while keeping all other substrates at saturated levels. The kinetic parameters of the ADH enzymes were determined herein on cellular extracts, and not on pure enzyme. Km was determined herein using a nonlinear regression algorithm for the single-substrate version of the Michaelis-Menten model by using GraphPad Prism Software (version 5). The detailed description of the algorithm is available on the world wide web at “graphpad.com/guides/prism/6/curve-fitting/index.htm?reg_kcat.htm”.
(§2) As used herein, the Km value was measured according to the method described in Example 4. […] For the forward reaction measurement, 0.15 mM NADPH was added, and acetaldehyde was added in differing amounts ranging from […] to 50 mM. The NADPH oxidation was measured at a wavelength of 340 nm.
(§3) In the above aspects, the Km-values represent the Km-values of the native, i.e. non-recombinant, form of the alcohol dehydrogenase enzyme. A Km-value as used herein can be determined from the endogenously expressed alcohol dehydrogenase enzyme of a wild-type cyanobacterial cell. […]
(§4) The reaction was started by addition of varying amounts of acetaldehyde in final concentrations between 1 μM and 50 mM. The NADPH oxidation was spectrophotometrically monitored at a wavelength of 340 nm on a Shimadzu UV2450 spectrophotometer. […]

[3] = system: alcohol dehydrogenase from Synechococcus sp., wild type, SEQ ID NO: 5; test: Km determination of native Adh in cell extract (forward and back reaction), Synechococcus sp. SEQ ID NO: 5; type: biochemical; details: pH 7.5, 30° C.
Description: as §1, §2, §3, §4

[4] = system: alcohol dehydrogenase from Lyngbya sp., wild type, SEQ ID NO: 1; test: Km determination of native Adh in cell extract (forward and back reaction), Lyngbya sp.; type: biochemical; details: pH 7.5, 30° C.
[5] = system: alcohol dehydrogenase AdhA from Moorella sp. HUC22-1; details: Inokuma et al., Arch Microbiol 188 (2007) 37-45, cited from earlier work
[6] = system: alcohol dehydrogenase from Synechococcus sp., wild type, SEQ ID NO: 4; test: Km determination of native Adh in cell extract (forward and back reaction), Synechococcus sp. SEQ ID NO: 4; type: biochemical; details: pH 7.5, 30° C.
Description: as §1, §2, §3, §4

[7] = system: alcohol dehydrogenase from Chroococcidiopsis sp., wild type, SEQ ID NO: 9; test: Km determination of native Adh in cell extract (forward and back reaction), Chroococcidiopsis sp. SEQ ID NO: 9; type: biochemical; details: 0.15 mM NADPH, pH 7.5, 30° C., read-out: Km(MeCHO)
Description: as §1, §2, §3, §4

[8] = system: alcohol dehydrogenase from Synechococcus sp., wild type, SEQ ID NO: 6; test: Km determination of native Adh in cell extract (forward and back reaction), Synechococcus sp. SEQ ID NO: 6; type: biochemical; details: pH 7.5, 30° C.
Description: as §1, §2, §3, §4

[9] = system: alcohol dehydrogenase from Cyanothece sp., wild type, SEQ ID NO: 3; test: Km determination of native Adh in cell extract (forward and back reaction), Cyanothece sp.; type: biochemical; details: pH 7.5, 30° C.
[10] = 0.15 mM NADPH, read-out: Km(MeCHO)
[11] = back reaction, 0.15 mM NADP+, read-out: Km(EtOH)

CC=O [acetaldehyde]
Km [1]: 3.34 mM
Km ([2]; read-out: Km for acetaldehyde): 0.12 mM
Km [3, 10]: 0.783 mM
Km ([4]; 0.15 mM NADPH, cell extract, Example 13, read-out: Km value for acetaldehyde): 6 µM
Km ([4]; 0.15 mM NADPH, cell extract, read-out: Km(MeCHO)): 5.8 µM
Km ([5]; read-out: Km for acetaldehyde): 10 mM
Km [6, 10]: 0.731 mM
Km [7]: 3.73 mM
Km [8, 10]: 1.13 mM
Km [9, 10]: 0.0756 mM

CCC=O [propanal]
Km ([4]; as Example 4: 0.15 mM NADPH, FIG. 15A, read-out: Km for propanal): 5.3 µM

CCO [ethanol]
Km ([2]; read-out: Km for ethanol): 3.6 mM
Km [3, 11]: 67 mM
Km ([4]; back reaction, 0.15 mM NADP+, cell extract, read-out: Km(EtOH)): 830 µM
Km ([5]; read-out: Km for ethanol): 40 mM
Km [6, 11]: 32.4 mM
Km [8, 11]: 29.3 mM
Km [9, 11]: 9.33 mM
